Experimental data reported in patent US20170022171A1, “2,5-DISUBSTITUTED CYCLOPENTANECARBOXYLIC ACIDS AND THEIR USE” (Bayer Pharma Aktiengesellschaft, priority 2014, published 2017).

Tests used:
Format in all cases: biochemical
[1] = target: T1, MMP-9 (Homo sapiens, UniProt P14780); experiment: In vitro MMP-9 inhibition test
T1 construct: purchased R&D Systems 911-MP
Excerpt: (§1) The MMP-mediated amidolytic cleavage of a suitable peptide substrate leads to an increase in fluorescent light here too. The signal intensity of the fluorescent light is directly proportional to the enzyme activity. The active concentration of a test compound at which half the enzyme is inhibited (50% signal intensity of the fluorescent light) is reported as the IC50 value.
(§2) Recombinant MMP-9 (from R&D Systems, 911-MP) is chemically activated in accordance with the manufacturer's instructions using APMA. 1 μl of the test compound to be analysed (as a solution in DMSO, suitable concentrations, for example, 1 nM to 30 μM) is pipetted into 24 μl of activated enzyme (final concentration, for example, 0.1 nM) in reaction buffer (50 mM Tris/HCl pH 7.5, 10 mM CaCl2, 150 mM NaCl, 0.05% Brij®-35) in a white 384-hole microtiter plate (MTP). The enzymatic reaction is started by adding the intramolecularly quenched Mca-Pro-Leu-Gly-Leu-Dpa(Dnp)-Ala-Arg-NH2 substrate (final concentration, for example, 10 μM; R&D Systems, ES-001), so as to result in a total test volume of 50 μl. The course of the MMP-9 reaction is measured by measuring the fluorescence intensity (excitation 320 nm, emission 410 nm) over a suitable period of time (for example over 120 min at a temperature of 32° C.).

[2] = target: T2, MMP-1 (Homo sapiens, UniProt P03956); experiment: In vitro MMP-1 inhibition test
T2 construct: purchased R&D Systems 901-MP
T2 sequence (P03956 100-469): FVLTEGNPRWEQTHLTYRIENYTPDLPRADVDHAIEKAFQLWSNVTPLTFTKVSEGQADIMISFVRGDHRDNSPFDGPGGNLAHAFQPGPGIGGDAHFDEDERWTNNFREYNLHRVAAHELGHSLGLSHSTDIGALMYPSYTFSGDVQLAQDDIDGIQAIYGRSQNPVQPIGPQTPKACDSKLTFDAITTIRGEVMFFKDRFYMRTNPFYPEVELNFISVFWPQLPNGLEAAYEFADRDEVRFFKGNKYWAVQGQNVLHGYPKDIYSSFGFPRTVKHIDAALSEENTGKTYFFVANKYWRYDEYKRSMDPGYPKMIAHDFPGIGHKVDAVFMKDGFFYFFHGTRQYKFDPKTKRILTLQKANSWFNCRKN
Excerpt: as §1
as §2, with “MMP-1” for “MMP-9”, “901-MP)” for “911-MP)”, “2” for “0.1”

[3] = target: T3, MMP-2 (Homo sapiens, UniProt P08253); experiment: In vitro MMP-2 inhibition test
T3 construct: purchased R&D Systems 902-MP
T3 sequence (P08253 110-660): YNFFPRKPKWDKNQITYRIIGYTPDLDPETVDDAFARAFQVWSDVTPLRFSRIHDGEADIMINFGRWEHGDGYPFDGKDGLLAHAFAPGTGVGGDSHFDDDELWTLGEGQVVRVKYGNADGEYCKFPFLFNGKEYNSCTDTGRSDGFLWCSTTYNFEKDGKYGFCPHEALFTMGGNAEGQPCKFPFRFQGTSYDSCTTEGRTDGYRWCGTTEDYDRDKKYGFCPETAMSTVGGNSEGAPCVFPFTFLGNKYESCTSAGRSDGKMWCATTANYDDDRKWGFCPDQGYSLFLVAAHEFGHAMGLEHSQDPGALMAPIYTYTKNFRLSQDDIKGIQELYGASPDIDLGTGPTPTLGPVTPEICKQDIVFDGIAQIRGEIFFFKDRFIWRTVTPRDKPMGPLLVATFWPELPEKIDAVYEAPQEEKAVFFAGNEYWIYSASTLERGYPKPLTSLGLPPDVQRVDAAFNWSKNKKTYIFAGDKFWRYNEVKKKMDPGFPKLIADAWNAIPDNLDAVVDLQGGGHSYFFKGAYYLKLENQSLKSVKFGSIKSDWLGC
Excerpt: as §1
as §2, with “MMP-2” for “MMP-9”, “902-MP)” for “911-MP)”, “2” for “0.1”

T1 sequence (P14780 107-707 limits assumed): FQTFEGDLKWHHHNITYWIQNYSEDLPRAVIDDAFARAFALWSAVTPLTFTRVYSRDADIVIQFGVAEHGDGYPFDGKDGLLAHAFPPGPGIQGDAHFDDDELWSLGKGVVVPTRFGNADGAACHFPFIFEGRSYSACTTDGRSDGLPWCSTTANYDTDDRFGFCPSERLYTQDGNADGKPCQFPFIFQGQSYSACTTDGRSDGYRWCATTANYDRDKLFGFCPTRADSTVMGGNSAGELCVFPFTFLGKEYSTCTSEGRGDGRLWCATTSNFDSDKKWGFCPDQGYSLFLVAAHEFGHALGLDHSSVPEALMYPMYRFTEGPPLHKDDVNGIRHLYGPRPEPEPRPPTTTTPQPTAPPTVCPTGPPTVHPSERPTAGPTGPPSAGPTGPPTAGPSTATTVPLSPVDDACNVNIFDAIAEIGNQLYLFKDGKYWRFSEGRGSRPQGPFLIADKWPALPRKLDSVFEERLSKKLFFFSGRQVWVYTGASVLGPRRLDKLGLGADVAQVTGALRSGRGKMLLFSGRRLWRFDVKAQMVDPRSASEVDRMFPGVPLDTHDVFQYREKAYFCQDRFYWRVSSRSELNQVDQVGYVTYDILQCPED

Compound	IC50 [1] [nM]	IC50 [2] [nM]	IC50 [3] [nM]
Cc1ccc2nnn(C[C@@H]3CC[C@H](C(=O)c4ccc(OCc5ccccc5)cc4)[C@H]3C(=O)O)c(=O)c2c1 (racemic) [Example 91, (+/−)-(1RS,2RS,5SR)-2-[4-(Benzyloxy)benzoyl]-5-[(6-methyl-4-oxo-1,2,3-benzotriazin-3(4H)-yl)methyl]cyclopentanecarboxylic acid]	21	5700	100
Cc1cccc(COc2ccc(C(=O)[C@H]3CC[C@@H](Cn4nnc5ccc(C)cc5c4=O)[C@@H]3C(=O)O)cc2)c1 (racemic) [Example 97, (+/−)-(1RS,2RS,5SR)-2-{4-[(3-Methylbenzyl)oxy]benzoyl}-5-[(6-methyl-4-oxo-1,2,3-benzotriazin-3(4H)-yl)methyl]cyclopentanecarboxylic acid]	740	> 40000	2300
Cc1ccc2nnn(C[C@@H]3CC[C@H](C(=O)c4ccc(OCc5cccc(C(F)(F)F)c5)cc4)[C@H]3C(=O)O)c(=O)c2c1 (racemic) [Example 100, (+/−)-(1RS,2SR,5RS)-2-[(6-Methyl-4-oxo-1,2,3-benzotriazin-3(4H)-yl)methyl]-5-(4-{[3-(trifluoromethyl)benzyl]oxy}benzoyl)cyclopentanecarboxylic acid]	160	> 40000	540
Cc1ccc2nnn(C[C@@H]3CC[C@H](C(=O)c4ccc(OCc5cccc(Cl)c5)cc4)[C@H]3C(=O)O)c(=O)c2c1 (racemic) [Example 103, (+/−)-(1RS,2RS,5SR)-2-{4-[(3-Chlorobenzyl)oxy]benzoyl}-5-[(6-methyl-4-oxo-1,2,3-benzotriazin-3(4H)-yl)methyl]cyclopentanecarboxylic acid]	110	9700	370
COc1cccc(COc2ccc(C(=O)[C@H]3CC[C@@H](Cn4nnc5ccc(C)cc5c4=O)[C@@H]3C(=O)O)cc2)c1 (racemic) [Example 106, (+/−)-(1RS,2RS,5SR)-2-{4-[(3-Methoxybenzyl)oxy]benzoyl}-5-[(6-methyl-4-oxo-1,2,3-benzotriazin-3(4H)-yl)methyl]cyclopentanecarboxylic acid]	76	12000	270
Cc1ccc2nnn(C[C@@H]3CC[C@H](C(=O)c4ccc(OCc5cccc(OC(F)(F)F)c5)cc4)[C@H]3C(=O)O)c(=O)c2c1 (racemic) [Example 109, (+/−)-(1RS,2SR,5RS)-2-[(6-Methyl-4-oxo-1,2,3-benzotriazin-3(4H)-yl)methyl]-5-(4-{[3-(trifluoromethoxy)benzyl]oxy}benzoyl)cyclopentanecarboxylic acid]	150	> 40000	1100
CCCCCOc1ccc(C(=O)[C@H]2CC[C@@H](Cn3nnc4ccc(C)cc4c3=O)[C@@H]2C(=O)O)cc1 (racemic) [Example 123, (+/−)-(1RS,2SR,5RS)-2-[(6-Methyl-4-oxo-1,2,3-benzotriazin-3(4H)-yl)methyl]-5-[4-(pentyloxy)benzoyl]cyclopentanecarboxylic acid]	94	24000	170
O=C(O)[C@@H]1[C@@H](Cn2nnc3ccc(C(F)(F)F)cc3c2=O)CC[C@H]1C(=O)c1ccc(OCc2ccc(F)cc2)cc1 (single isomer, unassigned) [Example 13, (+)-(1RS,2RS,5SR)-2-{4-[(4-Fluorobenzyl)oxy]benzoyl}-5-{[4-oxo-6-(trifluoromethyl)-1,2,3-benzotriazin-3(4H)-yl]methyl}cyclopentanecarboxylic acid]	4.4	3300	80
Cc1cccc(COc2ccc(C(=O)[C@@H]3CC[C@H](Cn4nnc5ccc(C(F)(F)F)cc5c4=O)[C@H]3C(=O)O)cc2)c1 (single isomer, unassigned) [Example 16, (+)-(1RS,2RS,5SR)-2-{4-[(3-Methylbenzyl)oxy]benzoyl}-5-{[4-oxo-6-(trifluoromethyl)-1,2,3-benzotriazin-3(4H)-yl]methyl}cyclopentanecarboxylic acid]	440	7100	970
O=C(O)[C@@H]1[C@@H](Cn2nnc3ccc(C(F)(F)F)cc3c2=O)CC[C@H]1C(=O)c1ccc(OCc2cccc(C(F)(F)F)c2)cc1 (single isomer, unassigned) [Example 19, (+)-(1RS,2SR,5RS)-2-{[4-Oxo-6-(trifluoromethyl)-1,2,3-benzotriazin-3(4H)-yl]methyl}-5-(4-{[3-(trifluoromethyl)benzyl]oxy}benzoyl)cyclopentanecarboxylic acid]	1000	37000	3800
O=C(O)[C@@H]1[C@@H](Cn2nnc3ccc(C(F)(F)F)cc3c2=O)CC[C@H]1C(=O)c1ccc(OCc2cccc(Cl)c2)cc1 (single isomer, unassigned) [Example 23, (+)-(1RS,2RS,5SR)-2-{4-[(3-Chlorobenzyl)oxy]benzoyl}-5-{[4-oxo-6-(trifluoromethyl)-1,2,3-benzotriazin-3(4H)-yl]methyl}cyclopentanecarboxylic acid]	270	24000	1600
O=C(O)[C@@H]1[C@@H](Cn2nnc3ccc(C(F)(F)F)cc3c2=O)CC[C@H]1C(=O)c1ccc(OCc2ccc(Cl)cc2)cc1 (single isomer, unassigned) [Example 25, (+)-(1RS,2RS,5SR)-2-{4-[(4-Chlorobenzyl)oxy]benzoyl}-5-{[4-oxo-6-(trifluoromethyl)-1,2,3-benzotriazin-3(4H)-yl]methyl}cyclopentanecarboxylic acid]	3	2300	79
O=C(O)[C@@H]1[C@@H](Cn2nnc3ccc(C(F)(F)F)cc3c2=O)CC[C@H]1C(=O)c1ccc(OCc2cccc(N3CCOC3=O)c2)cc1 (single isomer, unassigned) [Example 35, (+)-(1RS,2RS,5SR)-2-(4-{[3-(2-Oxo-1,3-oxazolidin-3-yl)benzyl]oxy}benzoyl)-5-{[4-oxo-6-(trifluoromethyl)-1,2,3-benzotriazin-3(4H)-yl]methyl}cyclopentanecarboxylic acid]	1400	2100	450
